Assay results from ChEMBL document CHEMBL4325841, “5-(4-Hydroxyphenyl)-3H-1,2-dithiole-3-thione-based fibrates as potential hypolipidemic and hepatoprotective agents” (2018).
The source made the active and inactive calls. The rule behind the calls is not given here.

Columns and labels:
Mus musculus [1] = experiment: Antihyperlipidemic activity in Triton WR-1339-induced hyperlipidemic mouse model assessed as decrease in serum MDA level at 13 mg/kg, po for 7 days and co-treated with Triton WR-1339 on day 6; format: functional, organism-based
Mus musculus [2] = experiment: Antihyperlipidemic activity in Triton WR-1339-induced hyperlipidemic mouse model assessed as decrease in total cholesterol level at 13 mg/kg, po for 7 days and co-treated with Triton WR-1339 on day 6; format: functional, organism-based
Mus musculus [3] = experiment: Antihyperlipidemic activity in Triton WR-1339-induced hyperlipidemic mouse model assessed as decrease in serum triglyceride level at 13 mg/kg, po for 7 days and co-treated with Triton WR-1339 on day 6; format: functional, organism-based
Mus musculus [4] = experiment: Antioxidant activity in high fat diet-induced hyperlipidemic mouse model assessed as increase in SOD level at 13 mg/kg, po administered for last 30 days during 60 days of high fat diet feeding relative to control; format: functional
Mus musculus [5] = experiment: Hepatoprotective activity in high fat diet-induced hyperlipidemic mouse model assessed as reduction in AST level at 13 mg/kg, po administered for last 30 days during 60 days of high fat diet feeding relative to control; format: functional
Mus musculus [6] = experiment: Antihyperlipidemic activity in high fat diet-induced hyperlipidemic mouse model assessed as increase in HDL level at 13 mg/kg, po administered for last 30 days during 60 days of high fat diet feeding relative to control; format: functional
Mus musculus [7] = experiment: Antioxidant activity in high fat diet-induced hyperlipidemic mouse model assessed as reduction in MDA level at 13 mg/kg, po administered for last 30 days during 60 days of high fat diet feeding relative to control; format: functional
Mus musculus [8] = experiment: Hepatoprotective activity in high fat diet-induced hyperlipidemic mouse model assessed as inhibition of lipid accumulation at 13 mg/kg, po administered for last 30 days during 60 days of high fat diet feeding by oil-red O staining-based microscopic analysis; format: functional, organism-based
Mus musculus [9] = experiment: Antihyperlipidemic activity in high fat diet-induced hyperlipidemic mouse model assessed as reduction in total cholesterol level at 13 mg/kg, po administered for last 30 days during 60 days of high fat diet feeding relative to control; format: functional
Mus musculus [10] = experiment: Antioxidant activity in high fat diet-induced hyperlipidemic mouse model assessed as increase in GSH-PX level at 13 mg/kg, po administered for last 30 days during 60 days of high fat diet feeding relative to control; format: functional
Mus musculus [11] = organism: Mus musculus; experiment: animal or person; format: functional; details: po
Description: Antihyperlipidemic activity in high fat diet-induced hyperlipidemic mouse model assessed as reduction in atherosclerosis index at 13 mg/kg, po administered for last 30 days during 60 days of high fat diet feeding relative to control

Mus musculus [12] = experiment: In vivo anti-inflammatory activity in high fat diet-induced hyperlipidemic mouse model assessed as reduction in IL-6 level at 13 mg/kg, po administered for last 30 days during 60 days of high fat diet feeding relative to control; format: functional
Mus musculus [13] = experiment: Hepatoprotective activity in high fat diet-induced hyperlipidemic mouse model assessed as decrease in inflammatory cell infiltration at 13 mg/kg, po administered for last 30 days during 60 days of high fat diet feeding by H and E staining-based microscopic analysis; format: functional, organism-based
Mus musculus [14] = experiment: Antihyperlipidemic activity in high fat diet-induced hyperlipidemic mouse model assessed as reduction in serum triglyceride level at 13 mg/kg, po administered for last 30 days during 60 days of high fat diet feeding relative to control; format: functional
Mus musculus [15] = experiment: Hepatoprotective activity in high fat diet-induced hyperlipidemic mouse model assessed as reduction in ALT level at 13 mg/kg, po administered for last 30 days during 60 days of high fat diet feeding relative to control; format: functional
Mus musculus [16] = experiment: In vivo anti-inflammatory activity in high fat diet-induced hyperlipidemic mouse model assessed as reduction in TNF-alpha level at 13 mg/kg, po administered for last 30 days during 60 days of high fat diet feeding relative to control; format: functional
Mus musculus [17] = experiment: Hepatoprotective activity in high fat diet-induced hyperlipidemic mouse model assessed as decrease in tissue hemorrhage at 13 mg/kg, po administered for last 30 days during 60 days of high fat diet feeding by H and E staining-based microscopic analysis; format: functional, organism-based
Mus musculus [18] = experiment: Antihyperlipidemic activity in high fat diet-induced hyperlipidemic mouse model assessed as LDL level at 13 mg/kg, po administered for last 30 days during 60 days of high fat diet feeding relative to control; format: functional

Row | SMILES | Activity (Mus musculus [1]) | Activity (Mus musculus [2]) | Activity (Mus musculus [3]) | also measured
1 | CCOC(=O)CCCCOc1ccc(-c2cc(=S)ss2)cc1 | Active | Active | Active | 
2 | CCOC(=O)C(C)Oc1ccc(-c2cc(=S)ss2)cc1 (stereo not given) | Active |  | Active | 
3 | COc1ccc(-c2cc(=S)ss2)cc1 |  | inactive | inactive | 
4 | CCOC(=O)CCCCCCOc1ccc(-c2cc(=S)ss2)cc1 | Active | Active | Active | 
5 | CCOC(=O)C(C)(C)Oc1ccc(-c2cc(=S)ss2)cc1 | Active |  | Active | 
6 | CCOC(=O)CCCCCOc1ccc(-c2cc(=S)ss2)cc1 | Active | Active | Active | Activity (Mus musculus [4]): 10.8%; inhibition in vivo at 13 mg/kg (Mus musculus [5]): 31.5 to 39%; Activity (Mus musculus [6]): 21.4%; inhibition in vivo at 13 mg/kg (Mus musculus [7]): 10.1%; Activity (Mus musculus [8]): Active; inhibition in vivo at 13 mg/kg (Mus musculus [9]): 12.5%; Activity (Mus musculus [10]): 19.2%; inhibition in vivo at 13 mg/kg (Mus musculus [11]): 40.1%; inhibition in vivo at 13 mg/kg (Mus musculus [12]): 18.4%; Activity (Mus musculus [13]): Active; inhibition in vivo at 13 mg/kg (Mus musculus [14]): 29.4%; inhibition in vivo at 13 mg/kg (Mus musculus [15]): 8.2%; inhibition in vivo at 13 mg/kg (Mus musculus [16]): 31.8%; Activity (Mus musculus [17]): Active; inhibition in vivo at 13 mg/kg (Mus musculus [18]): 30.7%
7 | CCOC(=O)COc1ccc(-c2cc(=S)ss2)cc1 | Active |  | Active | 
8 | CCOC(=O)C(CC)Oc1ccc(-c2cc(=S)ss2)cc1 (stereo not given) | Active |  | Active | 
9 | CC(C)OC(=O)C(C)(C)Oc1ccc(C(=O)c2ccc(Cl)cc2)cc1 [FENOFIBRATE] | Active | inactive | Active | Activity (Mus musculus [4]): 10.9%; Activity (Mus musculus [6]): 19.4%; Activity (Mus musculus [10]): 9.9%
